Test results published in patent EP4745153A1, “GLP-1, GIP AND GCG RECEPTOR […] USE THEREOF” (Jiangsu Hengrui Pharmaceuticals Co., Ltd., priority 2023, dated 2025).
Like-named read-outs stand apart in the source and are kept apart here. Starred links: 1 amine or outer side, 2 acyl side, 3 side chain; linkers in the order of their positions; H or OH if unused. Non-standard residues stand in square brackets, D forms with d. Residues, ends and D or L forms follow the SMILES beside them. Groups on a side chain read outwards from the residue. ξ: configuration not given here. *: point of attachment. C20 diacid = O=C(O)CCCCCCCCCCCCCCCCCCC(=O)*; γGlu = O=C(O)[C@H](CCC(=O)[*:2])N[*:1]; αMeK = C[C@](N)(CCCCN)C(=O)O; ξIva = CCC(C)(N)C(=O)O; AEEA = NCCOCCOCC(=O)O; Aib = CC(C)(N)C(=O)O

Assays:
human GCGR = target: T1, human GCGR (Homo sapiens, UniProt P47871); experiment: cAMP HTRF agonist activity assay in CHO-K1 cells expressing GCGR; type: cell-based; on Activity against human GCGR (EC50 nM): 5% FBS, 0.1% Casein
T1 construct: expressed in transfected cells; host or cells: CHO-K1 clonal cell line
Protocol: Functional activity was determined in CHO-K1 clonal cell lines expressing GIPR, GLP-1R, and GCGR. […] Each recipient cell (5000 cells/well) was added to an SV 96-well plate (Cisbio, 66PL96025) and incubated with the prepared polypeptide at 37°Cfor 30 min. The resulting increase in intracellular cAMP was quantitatively measured using the cAMP-GS dynamic HTRF assay kit (Cisbio, 62AM4PEJ). Briefly, the intracellular cAMP levels were determined by adding cAMP-d2 conjugate in cell lysis buffer, followed by the antibody anti-cAMP-Eu cryptate (also in cell lysis buffer).
Using the maximum response percentage vs. the added polypeptide concentration, the relative EC50 values were derived through nonlinear regression analysis and fitted to a four-parameter logarithmic equation. For specific data, refer to Tables 7-1 to 7-8 below. […]

human GLP-1R = target: T2, human GLP-1R (Homo sapiens, UniProt P43220); experiment: cAMP HTRF agonist activity assay in CHO-K1 cells expressing GLP-1R; type: cell-based; on Activity against human GLP-1R (EC50 nM): 5% FBS, 0.1% Casein
T2 construct: expressed in transfected cells; host or cells: CHO-K1 clonal cell line
Outline: (§1)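 cAMP accumulation measured by competitive HTRF after 30 min incubation of polypeptides with 5000 receptor-expressing CHO-K1 cells/well at 37°C. Percent of maximal response versus concentration fitted to a four-parameter logistic to give relative EC50.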

[1] = Pharmacokinetics in mice after single intravenous injection; design: species or system C57 mice; conditions: mouse, in vivo, male C57 mice, single intravenous dose 200 nmol/kg, plasma; for clearance: read-out: CLp; for half-life: read-out: T1/2 (converted)
Outline: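 Plasma concentrations were measured by positive-mode ESI LC-MS/MRM, with verapamil as internal standard, at time points from 5 min to 72 h. Samples came from three male C57 mice per compound, aged 4-6 weeks, dosed once intravenously with 200 nmol/kg in 1×PBS; PK parameters were derived with PKSolver.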

human GIPR = target: T3, human GIPR (Homo sapiens, UniProt P48546); experiment: cAMP HTRF agonist activity assay in CHO-K1 cells expressing GIPR; type: cell-based; on Activity against human GIPR (EC50 nM): 5% FBS, 0.1% Casein
T3 construct: expressed in transfected cells; host or cells: CHO-K1 clonal cell line
T3 sequence (P48546 22-466): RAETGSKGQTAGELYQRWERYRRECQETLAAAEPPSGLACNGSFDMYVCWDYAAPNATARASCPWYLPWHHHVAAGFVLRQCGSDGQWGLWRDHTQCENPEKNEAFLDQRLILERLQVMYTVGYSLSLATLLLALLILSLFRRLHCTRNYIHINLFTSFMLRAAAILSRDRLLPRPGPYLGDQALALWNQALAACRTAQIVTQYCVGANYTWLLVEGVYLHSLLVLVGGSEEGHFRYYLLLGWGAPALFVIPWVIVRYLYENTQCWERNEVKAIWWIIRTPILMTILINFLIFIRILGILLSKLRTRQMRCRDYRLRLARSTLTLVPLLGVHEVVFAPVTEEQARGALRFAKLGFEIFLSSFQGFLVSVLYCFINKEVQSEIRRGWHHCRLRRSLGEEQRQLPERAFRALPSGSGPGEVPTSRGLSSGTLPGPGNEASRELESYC
Outline: as §1

[2] = read-out: Activity against human GIPR (EC50 nM)
[3] = read-out: Activity against human GCGR (EC50 nM)
[4] = read-out: Activity against human GLP-1R (EC50 nM)

T1 sequence (P47871 26-477): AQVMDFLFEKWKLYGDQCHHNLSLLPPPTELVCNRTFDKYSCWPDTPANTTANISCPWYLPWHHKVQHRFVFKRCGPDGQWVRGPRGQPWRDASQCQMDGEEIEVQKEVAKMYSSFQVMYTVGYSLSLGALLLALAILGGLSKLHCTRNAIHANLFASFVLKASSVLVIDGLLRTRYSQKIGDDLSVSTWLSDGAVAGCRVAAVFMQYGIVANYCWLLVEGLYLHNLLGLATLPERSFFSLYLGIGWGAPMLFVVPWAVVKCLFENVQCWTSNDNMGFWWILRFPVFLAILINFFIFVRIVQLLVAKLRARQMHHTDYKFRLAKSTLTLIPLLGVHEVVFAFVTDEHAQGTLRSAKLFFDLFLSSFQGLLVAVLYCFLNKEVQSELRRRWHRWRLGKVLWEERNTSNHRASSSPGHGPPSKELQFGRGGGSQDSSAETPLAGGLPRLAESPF
T2 sequence (P43220 24-463): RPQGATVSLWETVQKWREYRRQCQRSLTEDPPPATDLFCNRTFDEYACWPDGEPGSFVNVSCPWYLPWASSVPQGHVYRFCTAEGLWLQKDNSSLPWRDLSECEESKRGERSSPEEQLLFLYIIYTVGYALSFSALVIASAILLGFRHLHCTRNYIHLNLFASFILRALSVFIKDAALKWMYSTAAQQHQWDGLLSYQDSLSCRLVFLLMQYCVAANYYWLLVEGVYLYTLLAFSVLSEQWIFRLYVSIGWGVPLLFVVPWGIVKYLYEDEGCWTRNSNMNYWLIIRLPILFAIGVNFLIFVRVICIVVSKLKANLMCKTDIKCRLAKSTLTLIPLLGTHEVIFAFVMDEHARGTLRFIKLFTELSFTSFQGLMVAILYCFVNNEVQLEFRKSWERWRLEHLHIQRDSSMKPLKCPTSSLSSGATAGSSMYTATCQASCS

Row | SMILES | EC50 (human GCGR) | EC50 (human GLP-1R) | AUC(0-inf) [1] | C0 [1] | clearance [1] | half-life [1] | EC50 (human GIPR; [2]) | EC50 (human GCGR; [3]) | EC50 (human GLP-1R; [4]) | EC50 (human GIPR)
1 | CC[C@H](C)[C@H](NC(=O)[C@H](CO)NC(=O)[C@H](CC(C)C)NC(=O)[C@H](CC(=O)O)NC(=O)[C@H](CO)NC(=O)[C@@H](NC(=O)[C@H](Cc1ccccc1)NC(=O)[C@@H](NC(=O)CNC(=O)[C@H](Cc1c[nH]cn1)NC(=O)C(C)(C)NC(=O)[C@@H](N)Cc1c[nH]cn1)[C@@H](C)O)[C@@H](C)O)C(=O)N[C@@](C)(CC(C)C)C(=O)N[C@@H](CC(C)C)C(=O)N[C@@H](CCC(=O)O)C(=O)N[C@@H](CCCCNC(=O)COCCOCCNC(=O)COCCOCCNC(=O)CC[C@H](NC(=O)CCCCCCCCCCCCCCCCCCC(=O)O)C(=O)O)C(=O)N[C@@H](CCCCN)C(=O)N[C@@H](C)C(=O)N[C@@H](C)C(=O)NC(C)(CC)C(=O)N[C@@H](CCC(=O)O)C(=O)N[C@@H](Cc1ccccc1)C(=O)N[C@H](C(=O)N[C@@H](CCC(=O)O)C(=O)N[C@@H](Cc1c[nH]c2ccccc12)C(=O)N[C@@H](CC(C)C)C(=O)N[C@@H](CC(C)C)C(=O)N[C@@H](C)C(=O)NCC(=O)NCC(=O)N1CCC[C@H]1C(=O)N[C@@H](CO)C(=O)N[C@@H](CO)C(=O)NCC(=O)N[C@@H](C)C(=O)N1CCC[C@H]1C(=O)N1CCC[C@H]1C(=O)N1CCC[C@H]1C(=O)N[C@@H](CO)C(N)=O)C(C)C (stereo partly drawn) [Compound 0138] | 0.055 nM | 0.019 nM | 18.5 µM·h | 3.28 µM | 0.181 mL/min/kg | 492 min |  |  |  | 
2 | CC[C@H](C)[C@H](NC(=O)[C@H](CO)NC(=O)[C@H](Cc1ccc(O)cc1)NC(=O)[C@H](CC(=O)O)NC(=O)[C@H](CO)NC(=O)[C@@H](NC(=O)[C@H](Cc1ccccc1)NC(=O)[C@@H](NC(=O)CNC(=O)[C@H](Cc1c[nH]cn1)NC(=O)C(C)(C)NC(=O)[C@@H](N)Cc1c[nH]cn1)[C@@H](C)O)[C@@H](C)O)C(=O)N[C@@H](CC(C)C)C(=O)N[C@@H](CC(C)C)C(=O)N[C@@H](CCC(=O)O)C(=O)N[C@@H](CCCCNC(=O)COCCOCCNC(=O)COCCOCCNC(=O)CC[C@H](NC(=O)CCCCCCCCCCCCCCCCCCC(=O)O)C(=O)O)C(=O)N[C@@H](CCCCN)C(=O)N[C@@H](C)C(=O)N[C@@H](C)C(=O)NC(C)(CC)C(=O)N[C@@H](CCC(=O)O)C(=O)N[C@@H](Cc1ccccc1)C(=O)N[C@H](C(=O)N[C@@H](CCC(=O)O)C(=O)N[C@@H](Cc1c[nH]c2ccccc12)C(=O)N[C@@H](CC(C)C)C(=O)N[C@@H](CC(C)C)C(=O)N[C@@H](C)C(=O)NCC(=O)NCC(=O)N1CCC[C@H]1C(=O)N[C@@H](CO)C(=O)N[C@@H](CO)C(=O)NCC(=O)N[C@@H](C)C(=O)N1CCC[C@H]1C(=O)N1CCC[C@H]1C(=O)N1CCC[C@H]1C(=O)N[C@@H](CO)C(N)=O)C(C)C (stereo partly drawn) [Compound 0135] |  |  |  |  |  |  | 0.001 nM | 0.019 nM | 0.013 nM | 
3 | CC(C)C[C@H](NC(=O)[C@H](CC(C)C)NC(=O)[C@H](Cc1c[nH]c2ccccc12)NC(=O)[C@H](CCC(=O)O)NC(=O)[C@@H](NC(=O)[C@H](Cc1ccccc1)NC(=O)[C@H](CCC(=O)O)NC(=O)[C@H](CCC(N)=O)NC(=O)[C@H](C)NC(=O)[C@H](C)NC(=O)[C@H](CCCCN)NC(=O)[C@H](CCCCNC(=O)COCCOCCNC(=O)COCCOCCNC(=O)CC[C@H](NC(=O)CCCCCCCCCCCCCCCCCCC(=O)O)C(=O)O)NC(=O)[C@H](CCC(=O)O)NC(=O)[C@H](CC(C)C)NC(=O)[C@H](CC(C)C)NC(=O)[C@](C)(CCCCN)NC(=O)[C@H](CO)NC(=O)[C@H](Cc1ccc(O)cc1)NC(=O)[C@H](CC(=O)O)NC(=O)[C@H](CO)NC(=O)[C@@H](NC(=O)[C@H](Cc1ccccc1)NC(=O)[C@@H](NC(=O)CNC(=O)[C@H](Cc1c[nH]cn1)NC(=O)C(C)(C)NC(=O)[C@@H](N)Cc1c[nH]cn1)[C@@H](C)O)[C@@H](C)O)C(C)C)C(=O)N[C@@H](C)C(=O)NCC(=O)NCC(=O)N1CCC[C@H]1C(=O)N[C@@H](CO)C(=O)N[C@@H](CO)C(=O)NCC(=O)N[C@@H](C)C(=O)N1CCC[C@H]1C(=O)N1CCC[C@H]1C(=O)N1CCC[C@H]1C(=O)N[C@@H](CO)C(N)=O [Compound 0112] (H-H[Aib]HGTFTSDYS[αMeK]LLEK([AEEA-AEEA-γGlu-C20 diacid])KAAQEFVEWLLAGGPSSGAPPPS-NH2) |  |  |  |  |  |  | 0.005 nM | 0.087 nM |  | 
4 | CC[C@H](C)[C@H](NC(=O)[C@](C)(CCCCN)NC(=O)[C@H](CO)NC(=O)[C@H](Cc1ccc(O)cc1)NC(=O)[C@H](CC(=O)O)NC(=O)[C@H](CO)NC(=O)[C@@H](NC(=O)[C@H](Cc1ccccc1)NC(=O)[C@@H](NC(=O)CNC(=O)[C@H](Cc1c[nH]cn1)NC(=O)C(C)(C)NC(=O)[C@@H](N)Cc1c[nH]cn1)[C@@H](C)O)[C@@H](C)O)C(=O)N[C@@H](CC(C)C)C(=O)N[C@@H](CCC(=O)O)C(=O)N[C@@H](CCCCNC(=O)COCCOCCNC(=O)COCCOCCNC(=O)CC[C@H](NC(=O)CCCCCCCCCCCCCCCCCCC(=O)O)C(=O)O)C(=O)N[C@@H](CCCCN)C(=O)N[C@@H](C)C(=O)N[C@@H](C)C(=O)N[C@@H](CCC(N)=O)C(=O)N[C@@H](CCC(=O)O)C(=O)N[C@@H](Cc1ccccc1)C(=O)N[C@H](C(=O)N[C@@H](CCC(=O)O)C(=O)N[C@@H](Cc1c[nH]c2ccccc12)C(=O)N[C@@H](CC(C)C)C(=O)N[C@@H](CC(C)C)C(=O)N[C@@H](C)C(=O)NCC(=O)NCC(=O)N1CCC[C@H]1C(=O)N[C@@H](CO)C(=O)N[C@@H](CO)C(=O)NCC(=O)N[C@@H](C)C(=O)N1CCC[C@H]1C(=O)N1CCC[C@H]1C(=O)N1CCC[C@H]1C(=O)N[C@@H](CO)C(N)=O)C(C)C [Compound 0119] (H-H[Aib]HGTFTSDYS[αMeK]ILEK([AEEA-AEEA-γGlu-C20 diacid])KAAQEFVEWLLAGGPSSGAPPPS-NH2) | 0.087 nM | 0.023 nM | 55.9 µM·h | 6.17 µM | 0.058 mL/min/kg | 780 min |  |  |  | 0.005 nM
5 | CC[C@H](C)[C@H](NC(=O)[C@H](CC(C)C)NC(=O)[C@H](Cc1c[nH]c2ccccc12)NC(=O)[C@H](CCC(=O)O)NC(=O)[C@@H](NC(=O)[C@H](Cc1ccccc1)NC(=O)[C@H](CCC(=O)O)NC(=O)C(C)(CC)NC(=O)[C@H](C)NC(=O)[C@H](C)NC(=O)[C@H](CCCCN)NC(=O)[C@H](CCCCNC(=O)COCCOCCNC(=O)COCCOCCNC(=O)CC[C@H](NC(=O)CCCCCCCCCCCCCCCCCCC(=O)O)C(=O)O)NC(=O)[C@H](CCC(=O)O)NC(=O)[C@H](CC(C)C)NC(=O)[C@H](CC(C)C)NC(=O)[C@](C)(CCCCN)NC(=O)[C@H](CO)NC(=O)[C@H](CC(C)C)NC(=O)[C@H](CC(=O)O)NC(=O)[C@H](CO)NC(=O)[C@@H](NC(=O)[C@H](Cc1ccccc1)NC(=O)[C@@H](NC(=O)CNC(=O)[C@H](Cc1c[nH]cn1)NC(=O)C(C)(C)NC(=O)[C@@H](N)Cc1c[nH]cn1)[C@@H](C)O)[C@@H](C)O)C(C)C)C(=O)N[C@@H](CCC(=O)O)C(=O)NCC(=O)NCC(=O)N1CCC[C@H]1C(=O)N[C@@H](CO)C(=O)N[C@@H](CO)C(=O)NCC(=O)N[C@@H](C)C(=O)N1CCC[C@H]1C(=O)N1CCC[C@H]1C(=O)N1CCC[C@H]1C(=O)N[C@@H](CO)C(N)=O (stereo partly drawn) [Compound 0133] (H-H[Aib]HGTFTSDLS[αMeK]LLEK([AEEA-AEEA-γGlu-C20 diacid])KAA[ξIva]EFVEWLIEGGPSSGAPPPS-NH2) |  |  |  |  |  |  | 0.002 nM | 0.03 nM | 0.016 nM | 
